Experimental data: article PMC9388626, “STUB1 is an intracellular checkpoint for interferon gamma sensing” (Scientific Reports, 2022)

How the values were obtained:
[1] = test system: B16-F10 cells; assay: Validation of monoclonal Stub1-knockout lines (Western, ICE CRISPR analysis); format: cell-based, murine; conditions: single clone from Stub1-knockout B16-F10 cells
Procedure: Tumour cells were genetically edited by electroporating the Cas9/crRNA/tracrRNA or Cas9/sgRNA ribonucleoprotein (RNP) complexes into cells using the 4D-nucleofector system (Lonza). To prepare the guide RNA complex, a 1:1 mixture of Alt-R crRNA and tracrRNA (50 µM each, IDT) in nuclease-free duplex buffer (IDT) was heated at 95 °C for 5 min, followed by cooling to room temperature. The crRNA/tracrRNA complex or the sgRNA (150 pmol) was mixed with Alt-R S.p. HiFi Cas9 Nuclease V3 (100 pmol, IDT, #1081060), and the resulting mixture was incubated at room temperature for 10 min to form the final RNP complexes which were used immediately. In parallel, the harvested tumour cells were rinsed with PBS. After re-suspending in 20 µl nucleofactor solution (Lonza), the cell suspension was added to the final RNP complexes (4.6 µl) in microcentrifuge tube. The resulting cell suspension was transferred to a designated well of nucleocuvette strip which was then pulsed with the nucleofector system using a preset program. After pulsing, culture media (75 µl) was added and the cell suspension was transferred to a designated well of a 12-well plate filled with 1.0 ml culture media. After 48 h incubation, the CRISPR-edited B16-F10 were subcloned by limiting dilution. The monoclonal cell lines were validated by Western blotting and analyzing the Sanger sequencing results of the PCR amplicon (~ 800 bp) flanking the crRNA-targeted site using ICE v2 CRISPR analysis tool (Synthego). For CT26, the cells were sorted for the top 50th percentile of IFNGR1-high population using BD FACSAria to enrich for the Stub1-null cells (Supplementary Fig. 10a). Human tumour cells, e.g., DU145, PC-3 and MCF7, were used right after the CRISPR editing. Sorting or subcloning was not applied to the human cell lines, since these lines were studied for a brief period in in vitro setting. Loss of STUB1 protein in the human cell lines was confirmed by Western blot analysis.

[2] = test system: B16-F10 tumour in C57BL/6 J mice; assay: Syngeneic B16-F10 model, GVAX then anti-PD-1; format: in vivo, mouse; conditions: N 15, in mm³ (unit assumed)
Procedure: Female C57BL/6 J mice (stock no: 000664, Jackson Laboratory) between 7–8 weeks of age weighing approximately 18–22 g were used for the study. […] One day after tumour inoculation, mice were dosed subcutaneously into the abdomen with 1.0 × 10^6 per 100 µl GM-CSF-secreting B16 (GVAX) cells that had been irradiated with 35 Gy from a ^137Cs source discharging 124 rads min^−1. GVAX treatment was repeated on day 4. […] The treatment was repeated on day 9, 12, and 15. The start of the study where tumour inoculation is conducted is designated as day 0.
Body weights were taken twice per week.

**Q.** How did the “Comment (knock-out by Western blot and ICE analysis)” value [1] turn out when “gStub1 #1 (guide GCATTGCTAAGAAGAAGCGC; chemistry not given here)” was run?
**A.** The value was “complete knock-out as assessed by Western blot and ICE analysis”.

**Q.** What about the Indel [1] of the same substance?
**A.** The Indel was -12 -15.

**Q.** What about the “Indel % (by Synthego ICE)” value [1] of the same substance?
**A.** Its value is 93%.

**Q.** What about the “tumour volume (Fig. 6b)” value ([2]; day 5, Mean) of the same substance?
**A.** Its value is 50.28.

**Q.** What about the “tumour volume (Fig. 6b)” value ([2]; day 8, Mean) of the same substance?
**A.** Its value is 251.2.

**Q.** And the “tumour volume (Fig. 6b)” value ([2]; day 10, Mean)?
**A.** The value was 457.3.

**Q.** And the “tumour volume (Fig. 6b)” value ([2]; day 12, Mean)?
**A.** Its value is 680.5.

**Q.** And the “tumour volume (Fig. 6b)” value ([2]; day 14, Mean)?
**A.** Its value is 866.

**Q.** What about the “tumour volume (Fig. 6b)” value ([2]; day 16, Mean) of the same substance?
**A.** The value was 944.8.
